Values after ≈ are worked out from the molar mass of the structure shown.
Key:
Assay type in all cases: cell-based
[1] = test system: E. coli isogenic strain ant(4′)-Ia; experiment: MIC broth microdilution, E. coli isogenic strain ant(4′)-Ia; conditions: for Geometric Mean MIC values, E. coli isogenic strains, ant(4′)-Ia: Table 2
Protocol: (§1) Minimum inhibitory concentrations for the example compounds herein are determined by the broth microdilution method in accordance with the Clinical and Laboratory Standards Institute (CLSI) guidelines. In brief, organism suspensions are adjusted to a 0.5 McFarland standard to yield a final inoculum between 3×10^5 and 7×10^5 colony-forming units (CFU)/mL. Compound dilutions and inocula are made in sterile, cation adjusted Mueller-Hinton Broth (Beckton Dickinson). The inoculum is prepared by suspension of a colony from an agar plate that is prepared the previous day. Bacteria are suspended in sterile saline and added to each assay plate to obtain a final concentration of 5×10^5 CFU/mL. An inoculum volume of 100 μL is added to wells containing 100 μL of broth with 2-fold serial dilutions of the compound. All inoculated microdilution trays are incubated in ambient air at 35° C. for 18-24 hours. Following incubation, the lowest concentration of the compound that prevents visible growth (OD 600 nm<0.05) is recorded as the MIC. […] Performance of the assay is monitored by the use of laboratory quality-control strains and a compound with a defined MIC spectrum (such as levofloxacin), in accordance with CLSI guidelines. Compounds are tested against multiple microbiologic panels. Panels include: 1) a multi-species primary screening panel that includes multiple defined AG-R mechanisms; 2) a panel of isogenic strains carrying different common mechanisms of AG-R that allows characterization of the SAR for AMEs, RMTs, and entry and efflux resistance mechanisms; and 3) panels of recent clinical isolates selected from Phase 3 studies and ongoing global surveillance.

[2] = test system: E. coli isogenic strain empty vector; experiment: MIC broth microdilution, E. coli isogenic strain, empty vector; conditions: for Geometric Mean MIC values, E. coli isogenic strains, empty vector: Table 2
Protocol: as §1

E. coli efflux parent = experiment: MIC broth microdilution, E. coli efflux parent strain; conditions: for Geometric Mean MIC values, E. coli efflux parent: Table 2
Protocol: as §1

[3] = test system: E. coli Δefflux (tolC efflux pump knocked-out); experiment: MIC broth microdilution, E. coli Δefflux strain (tolC knocked out)
Protocol: as §1

[4] = test system: E. coli isogenic strain nmpA; experiment: MIC broth microdilution, E. coli isogenic strain nmpA; conditions: for Geometric Mean MIC values, E. coli isogenic strains, nmpA: Table 2
Protocol: as §1

[5] = test system: E. coli isogenic strain aac(6′)-Ib; experiment: MIC broth microdilution, E. coli isogenic strain aac(6′)-Ib; conditions: for Geometric Mean MIC values, E. coli isogenic strains, aac(6′)-Ib: Table 2
Protocol: as §1

E. coli ATCC 25922 = experiment: Minimum inhibitory concentration (broth microdilution, CLSI), E. coli ATCC 25922; conditions: for Geometric Mean MIC values, E. coli ATCC 25922: Table 2
Protocol: as §1

[6] = test system: E. coli isogenic strain aph(3′)-Ia; experiment: MIC broth microdilution, E. coli isogenic strain aph(3′)-Ia; conditions: for Geometric Mean MIC values, E. coli isogenic strains, aph(3′)-Ia: Table 2, aph(3′)-Ia has activity at both the 3′-hydroxy and 5″-hydroxy positions
Protocol: as §1

[7] = test system: E. coli isogenic strain aph(3′)-II; experiment: MIC broth microdilution, E. coli isogenic strain aph(3′)-II; conditions: for Geometric Mean MIC values, E. coli isogenic strains, aph(3′)-II: Table 2
Protocol: as §1

[8] = test system: E. coli isogenic strain armA; experiment: MIC broth microdilution, E. coli isogenic strain armA; conditions: for Geometric Mean MIC values, E. coli isogenic strains, armA: Table 2
Protocol: as §1

NCC1OC(OC2C(CO)OC(OC3C(O)C(N)CC(N)C3OC3OC(CN)C(F)(F)C(O)C3N)C2O)C(N)C(O)C1O (centres unmarked)
Geometric Mean MIC values, E. coli isogenic strains, ant(4′)-Ia [1]: 1 µg/mL
Geometric Mean MIC values, E. coli isogenic strains, empty vector [2]: 1.4 µg/mL
Geometric Mean MIC values, E. coli efflux parent (E. coli efflux parent): 2 µg/mL
Geometric Mean MIC values, E. coli Δefflux ([3]; Table 2): 1 µg/mL
Geometric Mean MIC values, E. coli isogenic strains, nmpA [4]: 64 µg/mL
Geometric Mean MIC values, E. coli isogenic strains, aac(6′)-Ib [5]: 16 µg/mL
Geometric Mean MIC values, E. coli ATCC 25922 (E. coli ATCC 25922): 2 µg/mL
Geometric Mean MIC values, E. coli isogenic strains, aph(3′)-Ia [6]: >64 µg/mL
Geometric Mean MIC values, E. coli isogenic strains, aph(3′)-II [7]: 4 µg/mL
Geometric Mean MIC values, E. coli isogenic strains, armA [8]: 4 µg/mL

CCC(N)C1CCC(N)C(OC2C(N)CC(N)C(O)C2OC2OC(CO)C(OC3OC(CN)C(O)C(O)C3N)C2O)O1 (centres unmarked) [drawing 861]
Geometric Mean MIC values, E. coli isogenic strains, ant(4′)-Ia [1]: 0.5 µg/mL
Geometric Mean MIC values, E. coli isogenic strains, empty vector [2]: 1 µg/mL
Geometric Mean MIC values, E. coli efflux parent (E. coli efflux parent): 2 µg/mL
Geometric Mean MIC values, E. coli Δefflux ([3]; Table 2): 1 µg/mL
Geometric Mean MIC values, E. coli isogenic strains, nmpA [4]: >64 µg/mL
Geometric Mean MIC values, E. coli isogenic strains, aac(6′)-Ib [5]: 1 µg/mL
Geometric Mean MIC values, E. coli ATCC 25922 (E. coli ATCC 25922): 1.4 µg/mL
Geometric Mean MIC values, E. coli isogenic strains, aph(3′)-Ia [6]: >64 µg/mL
Geometric Mean MIC values, E. coli isogenic strains, aph(3′)-II [7]: 0.5 µg/mL
Geometric Mean MIC values, E. coli isogenic strains, armA [8]: 5.7 µg/mL

NC[C@@H]1O[C@H](O[C@H]2[C@@H](O)[C@H](O[C@@H]3[C@@H](O)[C@H](N)C[C@H](N)[C@H]3O[C@H]3O[C@H](CN)[C@@H](O)[C@H](O)[C@H]3N)O[C@@H]2CO)[C@H](N)[C@@H](O)[C@@H]1O [NEO, neomycin B, reference compound]
Geometric Mean MIC values, E. coli isogenic strains, ant(4′)-Ia [1]: 2.2 µg/mL
Geometric Mean MIC values, E. coli isogenic strains, empty vector [2]: 0.64 µg/mL
Geometric Mean MIC values, E. coli efflux parent (E. coli efflux parent): 0.76 µg/mL
Geometric Mean MIC values, E. coli Δefflux ([3]; Table 2): 0.79 µg/mL
Geometric Mean MIC values, E. coli isogenic strains, nmpA [4]: 80 µg/mL
Geometric Mean MIC values, E. coli isogenic strains, aac(6′)-Ib [5]: 1.6 µg/mL
Geometric Mean MIC values, E. coli ATCC 25922 (E. coli ATCC 25922): 1 µg/mL
Geometric Mean MIC values, E. coli isogenic strains, aph(3′)-Ia [6]: >64 µg/mL
Geometric Mean MIC values, E. coli isogenic strains, aph(3′)-II [7]: 18 µg/mL
Geometric Mean MIC values, E. coli isogenic strains, armA [8]: 0.75 µg/mL

NC[C@@H]1CC[C@@H](N)[C@@H](O[C@@H]2[C@@H](N)[C@H](O)[C@@H](N)[C@H](O)[C@H]2O[C@@H]2O[C@H](CO)[C@@H](O[C@H]3O[C@@H](CN)[C@@H](O)[C@H](O)[C@H]3N)[C@H]2O)O1 [drawing 888]
MIC ([1]; Escherichia coli, read-out: Geometric Mean MIC values, E. coli isogenic strains ant(4′)-Ia): 0.5 µg/mL (≈ 0.835 µM)
MIC ([2]; Escherichia coli, read-out: Geometric Mean MIC values, E. coli isogenic strains empty vector): 0.5 µg/mL (≈ 0.835 µM)
MIC (E. coli efflux parent; Escherichia coli, E. coli efflux parent strain, read-out: Geometric Mean MIC values, E. coli efflux parent): 0.5 µg/mL (≈ 0.835 µM)
Geometric Mean MIC values, E. coli Δefflux ([3]; E. coli Δefflux): 0.5 µg/mL
MIC ([4]; Escherichia coli, read-out: Geometric Mean MIC values, E. coli isogenic strains npmA): > 64 µg/mL
MIC ([5]; Escherichia coli, read-out: Geometric Mean MIC values, E. coli isogenic strains aac(6′)-Ib): 16 µg/mL (≈ 26.7 µM)
MIC (E. coli ATCC 25922; Escherichia coli, ATCC25922, E. coli ATCC 25922, broth microdilution, read-out: Geometric Mean MIC values, E. coli ATCC 25922): 1 µg/mL (≈ 1.67 µM)
MIC ([6]; Escherichia coli, read-out: Geometric Mean MIC values, E. coli isogenic strains aph(3′)-Ia): > 64 µg/mL
MIC ([7]; Escherichia coli, read-out: Geometric Mean MIC values, E. coli isogenic strains aph(3′)-II): 0.5 µg/mL (≈ 0.835 µM)
MIC ([8]; Escherichia coli, read-out: Geometric Mean MIC values, E. coli isogenic strains armA): 4 µg/mL (≈ 6.68 µM)

NCC1OC(OC2C(CO)OC(OC3C(O)C(N)CC(N)C3OC3OC(CN)C(O)C(F)C3N)C2O)C(N)C(O)C1O (centres unmarked) [drawing 869]
Geometric Mean MIC values, E. coli isogenic strains, ant(4′)-Ia [1]: 1 µg/mL
Geometric Mean MIC values, E. coli isogenic strains, empty vector [2]: 1 µg/mL
Geometric Mean MIC values, E. coli efflux parent (E. coli efflux parent): 1 µg/mL
Geometric Mean MIC values, E. coli Δefflux ([3]; Table 2): 1 µg/mL
Geometric Mean MIC values, E. coli isogenic strains, nmpA [4]: >64 µg/mL
Geometric Mean MIC values, E. coli isogenic strains, aac(6′)-Ib [5]: 4 µg/mL
Geometric Mean MIC values, E. coli ATCC 25922 (E. coli ATCC 25922): 1 µg/mL
Geometric Mean MIC values, E. coli isogenic strains, aph(3′)-Ia [6]: >64 µg/mL
Geometric Mean MIC values, E. coli isogenic strains, aph(3′)-II [7]: 1 µg/mL
Geometric Mean MIC values, E. coli isogenic strains, armA [8]: 4 µg/mL

— patent US11414450B1, “Aminoglycosides and uses thereof” (REVAGENIX, INC., priority 2017, dated 2022)
